The record followed here is PubChem BioAssay (NCI).

What all share (test): NCI tumour cell line growth inhibition, 48 h
The test system of assay [1] is A498 renal.
Assay [2] has as its system CAKI-1 renal.
In assay [3] the test system is HT29 colon.
For assay [4], the system named is K-562 leukemia.
The subject of assay [5] is MALME-3M melanoma.
Assay [6] deals with NCI-H522 lung.
In assay [7] the test system is OVCAR-3 ovarian.
The subject of assay [8] is OVCAR-4 ovarian.
Assay [9] concerns OVCAR-5 ovarian.
The subject of assay [10] is SF-295 CNS.

Molecules are shown by their SMILES.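 Results reflect a 48-hour exposure of cells in 96-well plates to compound at five concentrations. TGI: total growth inhibition.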

Turning to `Cc1nnc2sc(Cl)nn12`, the TGI in assay [1] was above 100 µM; in assay [2], 43.6 µM; in assay [3], 32.9 µM; in assay [4], 72.9 µM; in assay [5], 85.6 µM; in assay [6], 23.9 µM. For the same compound, the TGI in assay [7] was found to be 33.6 µM; in assay [8], 34.3 µM; in [9], 44.5 µM; in [10] it was 36.2 µM.

With `C=CC(CBr)CCC(Br)C(C)(C)Br` (stereo not drawn), the TGI in assay [1], in assay [2], in [3], in [4], in [5] and in assay [6] was above 10 µM each time. Moreover, the TGI in [7], in [8], in assay [9] and in assay [10] was above 10 µM each time.

For `Cc1ccc(/C=N/Nc2nc3ccccc3s2)s1`, the TGI in [2], in [3], in [4], in [5], in assay [6] and in assay [7] was above 100 µM in each case. The TGI in [8], in assay [9] and in assay [10] was above 100 µM throughout.

As to `Cc1n[n+](CC(=O)c2ccccc2)c2sc(N)nn12`, the TGI in assay [1], in assay [2], in assay [3], in assay [4], in assay [5] and in assay [6] was above 100 µM in each case. In addition, the TGI in [7], in assay [8], in assay [9] and in [10] was above 100 µM each time.

Consider `Cc1cc2nc3c(C#N)c(-c4ccccc4)/c(=C\Nc4ccc(Cl)cc4)c(=O)n3c2cc1C`, for which the TGI in assay [1], in assay [2], in [5], in assay [6], in assay [7] and in assay [8] was above 100 µM each time. Also, the TGI in assay [9] and in assay [10] was above 100 µM in each case.

For `NC1OC(COC(=O)c2ccccc2)C(O)C(OC(=O)c2ccccc2)C1OC(=O)c1ccccc1` (stereo not drawn), the TGI in assay [3] was 32.5 µM; in assay [5] it was 36.3 µM; in [6], 58.5 µM; in assay [7], 75.5 µM; in assay [8], above 100 µM; in [9] it was 48.1 µM. The TGI in assay [10] came out at 33.6 µM.

As for `CCC(=O)C1(N2CCOCC2)CCN(CCCC(=O)c2ccc(F)cc2)CC1`, the TGI in [1], in [2], in assay [3], in [4], in assay [5] and in assay [6] was above 100 µM in each case. Moreover, the TGI in assay [7], in [8], in assay [9] and in assay [10] was above 100 µM throughout.

For the compound `Cc1ccc(-c2cc(-c3ccc(Cl)cc3)nc(/N=C3\C(=O)N(CN4CCOCC4)c4ccccc43)n2)cc1`, the TGI in assay [1] worked out at 38.9 µM; in assay [2] it was 80 µM; in assay [3], 65.1 µM; in assay [4] it was 76.8 µM; in [5] it was 69.4 µM; in [6], 30.1 µM. Moreover, the TGI is above 100 µM in assay [7], above 100 µM in [8], 67.9 µM in assay [9] and above 100 µM in assay [10].

`CC1=[N+]([O-])C(C)(C)N(N=O)C1(C)C`: the TGI in assay [2], in [3], in [4], in [5], in assay [6] and in assay [7] was above 10 µM each time. For the same compound, the TGI in assay [8], in assay [9] and in assay [10] was above 10 µM in each case.

For the compound `Oc1cccc(-c2ccc3c4c2O[C@H]2c5[nH]c6ccccc6c5C[C@@]5(O)[C@@H](C3)N(CC3CC3)CC[C@]425)c1`, the TGI in [2] came out at 3.41 µM; in assay [3], 3.09 µM; in [5], 3.38 µM; in [7], 3.42 µM; in [8] it was 2.96 µM; in assay [9], 4.3 µM. The TGI in [10] worked out at 3.21 µM.

`N#CC1(C#N)NC(c2cccnc2)C(C#N)(C#N)NC1c1cccnc1` (stereo not drawn): the TGI in assay [1], in [2], in assay [3], in [4], in [5] and in assay [7] was above 100 µM each time. The TGI in assay [8], in [9] and in [10] was above 100 µM throughout.

For `CCSC1=N/C(=C\c2ccco2)C(NN)=N1`, the TGI in assay [1], in [2], in assay [3], in [4], in assay [5] and in assay [6] was above 50 µM throughout. Moreover, the TGI in assay [7], in assay [9] and in assay [10] was above 50 µM throughout.
